Key:
hygroscopicity = format: physicochemical
[1] = solubility in simulated lung fluid; format: physicochemical

CC(C)N1CCN(Cc2cnc(-c3cc(-c4cccc5[nH]ccc45)cc4[nH]ncc34)o2)CC1.O=C(O)c1ccccc1 [benzoate salt of Compound A, 2-(6-(1H-Indol-4-yl)-1H-indazol-4-yl)-5-((4-isopropylpiperazin-1-yl)methyl)oxazole benzoate]
hygroscopicity (hygroscopicity): suitable
solubility in simulated lung fluid [1]: suitable
